Test results reported in patent publication US20240051956A1, “SOS1 INHIBITORS AND USES THEREOF” (QILU REGOR THERAPEUTICS INC., priority 2020, published 2024).

What was measured:
SOS1 and KRAS G12D = SOS1 and KRAS G12D (Homo sapiens (Human), UniProt Q07889); test: KRAS::SOS1 AlphaScreen Binding Assay; conditions: SOS1 (564-1049), KRAS G12D (1-169), GDP
Excerpt: a. KRAS::SOS1 AlphaScreen Binding Assay
Low IC50 values of given compounds are indicative of high potency of the SOS1 inhibitor compounds in this assay setting.
• GST-TEV-SOS1 (564-1049) and His-TEV-Avi-KRAS G12D (1-169) are purchased from Viva Biotech (Shanghai) Ltd. • GDP (Sigma, Cat. G7127) • AlphaLISA Glutathione Acceptor Beads (PerkinElmer, Cat. AL109C) • AlphaScreen Streptavidin Donor Beads (PerkinElmer, Cat. 6760002S) • Assay plates: ProxiPlate-384 Plus, White 384-shallow well Microplate (PerkinElmer, Cat. 6008280)
SOS1 inhibitor compounds are diluted to a final start concentration of […]. Serial dilutions of compounds are made using Tecan D300e Digital Dispenser in 9 concentrations with serial 1:3 dilutions. 100 nL of compound solution is transferred to the 384-well assay plate per well, covering a range between 1 μM and 0.15 nM minimum in duplicate. 10 nM (final assay concentration) KRAS G12D, 5 nM (final assay concentration) SOS1 and 10 μM (final assay concentration) GDP are mixed in assay buffer, and 5 μL of KRAS::SOS1 GDP mix is added into the assay plate to the 100 nL of compound solution (final dilution in the assay 1:100, final DMSO concentration 1%). After a 30 min incubation, AlphaLISA Glutathione Acceptor Beads and AlphaScreen Streptavidin Donor Beads are mixed in assay buffer at a concentration of 5 µg/mL (final assay concentration), and 5 μL of bead mix is added into the assay plate. Plates are kept at room temperature in a darkened incubator for 3 h. After a 3 h incubation, the signal is determined using Envision (PerkinElmer). The excitation wavelength is 680 nm, and emission 615 nm. IC50 values are calculated and analyzed using GraphPad Prism.

NCI-H358 = test: Cell proliferation assay, 3D, CellTiter-Glo 3D; assay type: cell-based, human; conditions: Homo sapiens, 72 h; NCI-H358 (KRAS G12C), 3D ultra-low attachment, 3 days; read-out: anit-prolif. H358 IC50
Procedure: b. Cell Proliferation Assay
Low IC50 values are indicative of high potency of the compounds in this assay setting.
Cell proliferation assay is performed in three-dimensional (3D) ultra-low conditions with the human cell line NCI-H358, a human non-small cell lung cancer (NSCLC) cell line with a KRAS G12C mutation.
• 96-well Clear Round Bottom Ultra-Low Attachment Microplate (Corning, Cat. 7007) • 96-well Flat Clear Bottom White Polystyrene TC-treated Microplates (Corning, Cat. 3610) • RPMI-1640 Medium (Gibco, Cat. 22400105) • Fetal Bovine Serum (FBS) (Gibco, Cat. 10099141C) • 0.25% Trypsin-EDTA (Gibco, Cat. 25200056) • Penicillin-Streptomycin (Gibco, Cat. 15140122) • CellTiter-Glo 3D Cell Viability Assay (Promega, Cat. G9683)
NCI-H358 cells (ATCC, Cat. CRL-5807) are grown in cell culture flasks using RPMI medium supplemented with 10% FBS. Cells are incubated at 37° C. and 5% C02 in a humidified atmosphere, with sub-cultivation performed twice a week. Cells are trypsinized, counted and plated in 96-well ultra-low adhesion plates for 3D cell viability determination. The day after plating, serial dilutions of SOS1 inhibitor compounds are made using Tecan D300e Digital Dispenser to evaluate a concentration-dependent effect on cell viability. The concentration of the test compounds covers a range between 5 μM and 0.76 nM with serial 1:3 dilutions in 9 concentrations. 0.5 μL serial dilutions of the compounds are added in duplicates. 3 days later, the CellTiter-Glo 3D Cell Viability Assay is used to measure cell viability effects of SOS1 inhibitor compounds in 3D format. Luminescent intensity is determined using Envision (PerkinElmer). Data is analyzed and IC50 values are calculated using GraphPad Prism.

Sequence of SOS1 and KRAS G12D (Q07889 564-1049, stated change not applied): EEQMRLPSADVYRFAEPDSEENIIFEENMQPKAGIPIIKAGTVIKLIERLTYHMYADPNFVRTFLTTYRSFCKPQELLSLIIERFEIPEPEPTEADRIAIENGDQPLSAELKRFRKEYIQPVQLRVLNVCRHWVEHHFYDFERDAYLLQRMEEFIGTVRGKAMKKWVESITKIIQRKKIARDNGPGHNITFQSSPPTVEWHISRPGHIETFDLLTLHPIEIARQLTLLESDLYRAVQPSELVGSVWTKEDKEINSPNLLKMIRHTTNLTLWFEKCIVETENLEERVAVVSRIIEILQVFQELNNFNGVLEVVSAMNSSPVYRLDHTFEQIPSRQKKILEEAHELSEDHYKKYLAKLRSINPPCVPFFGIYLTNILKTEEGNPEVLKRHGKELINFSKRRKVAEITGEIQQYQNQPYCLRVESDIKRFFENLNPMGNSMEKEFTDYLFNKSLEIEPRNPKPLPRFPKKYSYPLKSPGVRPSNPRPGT

IC50 (SOS1 and KRAS G12D) [nM] | IC50 (NCI-H358) [nM] | Structure (SMILES)
≤ 15 | 100 to 500 | Cc1nc(N[C@H](C)c2cccc(C(F)F)c2F)c2cn(N3CCN(C(C)C)CC3)c(=O)cc2n1 [Example 12, 4-[[(1R)-1-[3-(difluoromethyl)-2-fluoro-phenyl]ethyl]amino]-6-(4-isopropylpiperazin-1-yl)-2-methyl-pyrido[4,3-d]pyrimidin-7-one]
≤ 15 | 500 to 1000 | Cc1nc(N[C@H](C)c2cccc(C(F)F)c2F)c2cn(N3CCN(C(=O)CO)CC3)c(=O)cc2n1 [Example 13, 4-[[(1R)-1-[3-(difluoromethyl)-2-fluoro-phenyl]ethyl]amino]-6-[4-(2-hydroxyacetyl)piperazin-1-yl]-2-methyl-pyrido[4,3-d]pyrimidin-7-one]
≤ 15 | 500 to 1000 | Cc1nc(N[C@H](C)c2cccc(C(F)F)c2F)c2cn(N3CCN(C(=O)CC#N)CC3)c(=O)cc2n1 [Example 14]
15 to 150 | ≤ 100 | Cc1nc(N[C@H](C)c2cccc(C(F)F)c2F)c2cn(N3CCN(c4ccc(C#N)cn4)CC3)c(=O)cc2n1 [Example 15, 6-[4-[4-[[(1R)-1-[3-(difluoromethyl)-2-fluoro-phenyl]ethyl]amino]-2-methyl-7-oxo-pyrido[4,3-d]pyrimidin-6-yl]piperazin-1-yl]pyridine-3-carbonitrile]
15 to 150 | 100 to 500 | Cc1nc(N[C@H](C)c2cc(N)cc(C(F)(F)F)c2)c2cn(N3CCOCC3)c(=O)cc2n1 [Example 16, 4-[[(1R)-1-[3-amino-5-(trifluoromethyl)phenyl]ethyl]amino]-2-methyl-6-morpholino-pyrido[4,3-d]pyrimidin-7-one]
≤ 15 | 500 to 1000 | Cc1nc(N[C@H](C)c2cccc(C(F)(F)CO)c2)c2cn(N3CCOCC3)c(=O)cc2n1 [Example 18]
≤ 15 | 100 to 500 | Cc1nc(N[C@H](C)c2cccc(C(F)(F)F)c2F)c2cn(N3CCOCC3)c(=O)cc2n1 [Example 19]
≤ 15 | ≤ 100 | Cc1nc(N[C@H](C)c2cccc(C(F)(F)F)c2)c2cn(N3CCOCC3)c(=O)cc2n1 [Example 20]
≤ 15 | ≤ 100 | Cc1nc(N[C@H](C)c2cccc(C(F)F)c2C)c2cn(N3CCOCC3)c(=O)cc2n1 [Example 21]
150 to 1000 | > 1000 | Cc1nc(N[C@@H](C)c2cccc(C(F)F)c2C)c2cn(N3CCOCC3)c(=O)cc2n1 [Example 22]
15 to 150 | 100 to 500 | CCC(Nc1nc(C)nc2cc(=O)n(N3CCOCC3)cc12)c1cccc(C(F)(F)F)c1 (centres unmarked) [Example 24]
15 to 150 | 100 to 500 | Cc1nc(NC(C)c2cccc(C(F)F)c2)c2cn(N3CCOCC3)c(=O)cc2n1 (centres unmarked) [Example 25]
≤ 15 | ≤ 100 | Cc1nc(N[C@H](C)c2cccc(C(F)(F)F)c2F)c2cn(N3CCOCC3)c(=O)c(F)c2n1 [Example 31]
≤ 15 | ≤ 100 | Cc1nc(N[C@H](C)c2cccc(C(F)(F)CO)c2)c2cn(N3CCOCC3)c(=O)c(F)c2n1 [Example 32]
≤ 15 | 100 to 500 | Cc1nc(N[C@H](C)c2cccc(C(F)(F)F)c2)c2cn(N3CCOCC3)c(=O)c(F)c2n1 [Example 33]
≤ 15 | 100 to 500 | Cc1nc(N[C@H](C)c2cccc(C(F)F)c2F)c2cn(N(C)C)c(=O)cc2n1 [Example 34, 4-[[(1R)-1-[3-(difluoromethyl)-2-fluoro-phenyl]ethyl]amino]-6-(dimethylamino)-2-methyl-pyrido[4,3-d]pyrimidin-7-one]
≤ 15 | 100 to 500 | Cc1nc(N[C@H](C)c2cccc(C(F)F)c2F)c2cn(N3CCCC3)c(=O)cc2n1 [Example 35]
≤ 15 | 100 to 500 | Cc1nc(N[C@H](C)c2cccc(C(F)F)c2F)c2cn(N3CCS(=O)(=O)CC3)c(=O)cc2n1 [Example 36]
≤ 15 | 100 to 500 | Cc1nc(N[C@H](C)c2cccc(C(F)F)c2F)c2cn(N3CCC(O)CC3)c(=O)cc2n1 [Example 37]

IC50 (SOS1 and KRAS G12D) [nM] | IC50 (NCI-H358) [nM] | Structure (SMILES)
≤ 15 | 500 to 1000 | Cc1nc(N[C@H](C)c2cccc(C(F)F)c2F)c2cn(N3CCCC3=O)c(=O)cc2n1 [Example 38]
≤ 15 | 100 to 500 | Cc1nc(N[C@H](C)c2cccc(C(F)F)c2F)c2cn(N3CCOC3=O)c(=O)cc2n1 [Example 39]
≤ 15 | ≤ 100 | Cc1nc(N[C@H](C)c2cccc(C(F)F)c2F)c2cn(N3CCOCC3)c(=O)c(Br)c2n1 [Example 40, 8-bromo-4-[[(1R)-1-[3-(difluoromethyl)-2-fluoro-phenyl]ethyl]amino]-2-methyl-6-morpholino-pyrido[4,3-d]pyrimidin-7-one]
15 to 150 | 100 to 500 | Cc1nc(N[C@H](C)c2cccc(C(F)F)c2F)c2cn(N3CCOCC3)c(=O)c(C#N)c2n1 [Example 41, 4-[[(1R)-1-[3-(difluoromethyl)-2-fluoro-phenyl]ethyl]amino]-2-methyl-6-morpholino-7-oxo-pyrido[4,3-d]pyrimidine-8-carbonitrile]
≤ 15 | 100 to 500 | Cc1nc(N[C@H](C)c2cccc(C(F)F)c2F)c2cn(N3CCOCC3)c(=O)c(C3CC3)c2n1 [Example 42, 8-cyclopropyl-4-[[(1R)-1-[3-(difluoromethyl)-2-fluoro-phenyl]ethyl]amino]-2-methyl-6-morpholino-pyrido[4,3-d]pyrimidin-7-one]
≤ 15 | ≤ 100 | Cc1nc(N[C@H](C)c2cccc(C(F)F)c2F)c2cn(N3CCOCC3)c(=O)c(C)c2n1 [Example 44]
≤ 15 | ≤ 100 | Cc1nc(N[C@H](C)c2cccc(C(F)F)c2F)c2cn(N3CCOCC3)c(=O)c(-c3cccnc3)c2n1 [Example 45]
≤ 15 | ≤ 100 | Cc1nc(N[C@H](C)c2cccc(C(F)F)c2F)c2cn(N3CCOCC3)c(=O)c(-c3ccncc3)c2n1 [Example 46]
≤ 15 | 100 to 500 | Cc1nc(N[C@H](C)c2cccc(C(F)F)c2F)c2cn(N3CCOCC3)c(=O)c(-c3ccccc3)c2n1 [Example 47]
≤ 15 | 100 to 500 | Cc1nc(N[C@H](C)c2cccc(C(F)F)c2F)c2cn(N3CCOCC3)c(=O)c(-c3ccc(N)nc3)c2n1 [Example 48]
≤ 15 | 500 to 1000 | Cc1nc(N[C@H](C)c2cccc(C(F)F)c2F)c2cn(N3CCOCC3)c(=O)c(-c3ccc(=O)[nH]c3)c2n1 [Example 49]
≤ 15 | 100 to 500 | Cc1nc(N[C@H](C)c2cccc(C(F)F)c2F)c2cn(N3CCOCC3)c(=O)c(-c3ccc(F)nc3)c2n1 [Example 50]
≤ 15 | > 1000 | Cc1nc(N[C@H](C)c2cccc(C(F)F)c2F)c2cn(N3CCOCC3)c(=O)c(-c3ccc[nH]c3=O)c2n1 [Example 51]
≤ 15 | ≤ 100 | Cc1nc(N[C@H](C)c2cccc(C(F)F)c2F)c2cn(N3CCOCC3)c(=O)c(-c3cncnc3)c2n1 [Example 52]
≤ 15 | 100 to 500 | Cc1nc(N[C@H](C)c2cccc(C(F)F)c2F)c2cn(N3CCOCC3)c(=O)c(C3=CCOC3)c2n1 [Example 54]
≤ 15 | 100 to 500 | Cc1nc(N[C@H](C)c2cccc(C(F)F)c2F)c2cn(N3CCOCC3)c(=O)c(C3=CCN(S(C)(=O)=O)CC3)c2n1 [Example 55]
≤ 15 | 100 to 500 | C=C(C)c1c(=O)n(N2CCOCC2)cc2c(N[C@H](C)c3cccc(C(F)F)c3F)nc(C)nc12 [Example 56]
≤ 15 | ≤ 100 | Cc1nc(N[C@H](C)c2cccc(C(F)F)c2F)c2cn(N3CCOCC3)c(=O)c(-c3ccc(C#N)cc3)c2n1 [Example 57]
